Measured values from patent publication US12679878B2, “CRF2 receptor agonists and their use in therapy” (SANOFI, priority 2020, dated 2026).
In brackets after ≈: the same amount, converted by molar mass. Where two headings read alike, the source gives them in different places. Starred links: 1 amine or outer side, 2 acyl side, 3 side chain; linkers in the order of their positions; H or OH if unused. Non-standard residues stand in square brackets, D forms with d. Residues, ends and D or L forms follow the SMILES beside them. Groups on a side chain read outwards from the residue. *: point of attachment. C16 diacid = O=C(O)CCCCCCCCCCCCCCC(=O)*; γGlu = O=C(O)[C@H](CCC(=O)[*:2])N[*:1]; Aib = CC(C)(N)C(=O)O

Key:
[1] = target: T1, CRF1R receptor (Homo sapiens, UniProt P34998); assay: cAMP activity at anti-target CRF1R, CHO-K1 cell line clone 2 (Example 19.10); assay type: cell-based; details: for Emax: 100% = Sauvagine at 100 nM; for CRF1/CRF2 ratio: ratio of CRF1 EC50 to CRF2 EC50
T1 construct: host or cells: CHO-K1 clone 2
T1 sequence (P34998 24-415): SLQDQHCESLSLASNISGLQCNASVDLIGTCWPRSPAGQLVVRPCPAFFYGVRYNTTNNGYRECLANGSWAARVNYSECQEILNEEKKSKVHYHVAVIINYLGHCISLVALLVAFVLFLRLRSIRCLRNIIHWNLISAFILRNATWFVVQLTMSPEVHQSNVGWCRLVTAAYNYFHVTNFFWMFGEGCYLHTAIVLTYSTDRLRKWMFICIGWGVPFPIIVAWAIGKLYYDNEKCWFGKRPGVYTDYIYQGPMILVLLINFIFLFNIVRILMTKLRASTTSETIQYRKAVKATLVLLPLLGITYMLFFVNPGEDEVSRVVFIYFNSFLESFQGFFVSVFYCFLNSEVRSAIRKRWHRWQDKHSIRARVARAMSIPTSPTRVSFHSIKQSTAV
In short: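 A CRF1R-overexpressing CHO-K1 line (clone 2) was grown in F12/10% FBS/G418 and frozen in aliquots before use. The cAMP assay followed the preceding procedure, with 100% activation defined by Sauvagine at 100 nM.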

[2] = Buffer solubility by LC-UV, pH 7.4 phosphate and pH 4.5 acetate (Example 19.11); assay type: physicochemical; details: target 10 mg/mL
Method: (§1) As for example 15 above, also the chemical stability of representative examples of these FA modified peptides has been assessed, using LC-UV instead of light scattering. Solubility and chemical stability were studied in 100 mM phosphate buffer (pH 7.4) and 100 mM acetate buffer (pH 4.5). Test compound powders were dissolved in both buffers at a target concentration of 10 mg/mL and incubated for 1 hour at room temperature. After centrifugation at 2500 rcf for 15 minutes, […] of supernatant was diluted with […] of the incubation buffer and analyzed by LC-UV (Acquity UPLC-DAD, Waters). Solubility was calculated by comparing the peak area of the test compound in the buffer sample with the peak area of the same compound dissolved at 0.5 mg/ml in water:acetonitrile 1:1, 0.1% formic acid.

[3] = In vitro plasma stability, rat plasma (Example 19.11); assay type: in vitro ADME, Sprague Dawley rats; parameters: remaining at 2 h: dose or concentration left out as unconfirmed; details: 37° C.; for remaining at 2 h: male, Sprague Dawley, rat, plasma
Method: (§2) In vitro plasma metabolic stability was studied in male Sprague Dawley rats and human. Test compound were incubated […] for 2 hours at 37° C. At each time point (0, 0.25, 1 and 2 h), samples were prepared for analysis by means of a single step protein precipitation technique by adding 150 μL of ethanol, 0.1% formic acid to 50 μL aliquots of plasma. Samples were mixed by vortex for homogeneity and then subjected to centrifugation at 14000 rpm for 15 min. The supernatant (100 μL) was collected, diluted with 100 μL of water, 0.1% formic acid and analyzed by LC-HRMS (TripleTOF 6600+, AB Sciex). For each test compound, the area ratios at each time point were compared to the 0 h area ratio and converted to a percentage remaining.

[4] = In vitro plasma stability, human plasma (Example 19.11); assay type: in vitro ADME; parameters: dose or concentration left out as unconfirmed; details: 37° C.
Method: as §2

[5] = Chemical stability as % loss by LC-UV, 28 days 40° C. vs 5° C. (Example 19.11); assay type: physicochemical
Method: as §1
From the centrifuged supernatant, two additional […] aliquots were collected and diluted with […] of incubation buffer. One aliquot was stored at 5° C., while the other was stored at 40° C. After 28 days, the samples were analyzed by LC-UV. Chemical stability was calculated as % loss using the following equations: • Chemical stability (as % loss)=[(purity after 28 days at 5° C.)−(purity after 28 days at 40° C.)]×100/(purity after 28 days at 5° C.) % purity=[(peak area compound)×100/(total peak area)]

[6] = target: T2, human CRF2α receptor (Homo sapiens, UniProt Q13324); assay: cAMP agonism at human CRF2α receptor in TeloHEAC cells, FA modified peptides (Example 19.9); assay type: cell-based; details: 0% HSA, relative to urocortin 2
T2 construct: expressed in transfected cells; host or cells: TeloHEAC
T2 sequence (Q13324 1-411): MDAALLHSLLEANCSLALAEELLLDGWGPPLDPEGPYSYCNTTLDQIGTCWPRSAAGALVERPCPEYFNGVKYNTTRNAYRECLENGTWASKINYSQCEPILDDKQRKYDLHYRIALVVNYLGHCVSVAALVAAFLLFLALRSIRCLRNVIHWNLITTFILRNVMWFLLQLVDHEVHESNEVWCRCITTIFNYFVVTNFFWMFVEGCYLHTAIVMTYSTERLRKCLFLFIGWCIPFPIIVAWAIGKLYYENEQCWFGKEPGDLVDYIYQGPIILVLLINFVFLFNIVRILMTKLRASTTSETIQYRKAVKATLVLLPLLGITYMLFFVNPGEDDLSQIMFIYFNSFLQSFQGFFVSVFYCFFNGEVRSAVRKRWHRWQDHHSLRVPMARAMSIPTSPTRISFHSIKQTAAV
In short: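 Efficacy and EC50 are referenced to 100 nM urocortin 2 as 100%, with cAMP measured as the 665/620 nm HTRF ratio after 1 h at room temperature. Compounds (0.5 mM DMSO stock, 16 twofold dilutions) acted 30 min at 37 °C on CRF2α-expressing TeloHEAC cells, buffer containing IBMX and 0% or 0.2% HSA.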

[7] = 0% HSA, CRF1R CHO-K1 clone 2, read-out: EC50 [nM] 0% HSA
[8] = Table 20 side-to-side comparison, read-out: CRF1 EC50
[9] = pH 7.4, 100 mM phosphate buffer

| EC50 [1, 7] [nM] | Emax ([1]; CRF1R CHO-K1 clone 2) [%] | EC50 [1, 8] [nM] | CRF1/CRF2 ratio [1] | solubility at 1 h ([2]; pH 4.5, 100 mM acetate buffer) [µg/mL] | solubility at 1 h [2, 9] [µg/mL] | % remaining at 2 hours ([3]; 120 min) [%] | remaining at 2 h [3] [%] | remaining at 2 h [4] [%] | % loss (chemical stability) ([5]; pH 4.5) [%] | % loss (chemical stability) ([5]; pH 7.4) [%] | EC50 [6] [nM] | Compound |
| --- | --- | --- | --- | --- | --- | --- | --- | --- | --- | --- | --- | --- |
| > 100 | 43.8 | > 100 | >500 | 8200 (≈ 1690 µM) | 8800 (≈ 1810 µM) | 92 | 102 | 97 | 0 | 31 | 0.44 | CC[C@H](C)[C@H](N)C(=O)N[C@H](C(=O)N[C@@H](CC(C)C)C(=O)N[C@@H](CO)C(=O)N[C@@H](CC(C)C)C(=O)N[C@@H](CC(=O)O)C(=O)N[C@@H](C(=O)N1CCC[C@H]1C(=O)N[C@H](C(=O)N[C@@H](CCCCN)C(=O)N[C@@H](CC(C)C)C(=O)N[C@@H](CCCCNC(=O)CC[C@H](NC(=O)CCCCCCCCCCCCCCC(=O)O)C(=O)O)C(=O)N[C@@H](CCC(N)=O)C(=O)N[C@H](C(=O)N[C@@H](CC(C)C)C(=O)N[C@@H](CC(C)C)C(=O)N[C@@H](CCCCN)C(=O)N[C@@H](CCC(N)=O)C(=O)N[C@@H](CCC(=O)O)C(=O)N[C@@H](CCCNC(=N)N)C(=O)N[C@@H](CCC(N)=O)C(=O)N[C@@H](CCCCN)C(=O)NC(C)(C)C(=O)N[C@@H](CCC(N)=O)C(=O)N[C@@H](CCCNC(=N)N)C(=O)N[C@@H](CCC(=O)O)C(=O)N[C@@H](CCC(N)=O)C(=O)N[C@@H](C)C(=O)N[C@@H](CCC(=O)O)C(=O)N[C@@H](CCCCN)C(=O)N[C@@H](CC(N)=O)C(=O)N[C@@H](CCCCN)C(=O)N[C@@H](CCC(N)=O)C(=O)N[C@H](C(=O)N[C@@H](CC(C)C)C(=O)N[C@@H](C)C(=O)N[C@@H](CCC(N)=O)C(=O)N[C@H](C(N)=O)C(C)C)[C@@H](C)CC)[C@@H](C)CC)[C@@H](C)CC)C(C)C)C(C)C [compound 187] (H-IVLSLD[dV]PIKLK([γGlu-C16 diacid])QILLKQERQK[Aib]QREQAEKNKQILAQV-NH2) |
| > 100 | 15 | > 100 | >500 | 9000 (≈ 1860 µM) | 6300 (≈ 1300 µM) | – | 101 | 97 | 0 | 48 | 3.49 | CC[C@H](C)[C@H](N)C(=O)N[C@H](C(=O)N[C@@H](CC(C)C)C(=O)N[C@@H](CO)C(=O)N[C@@H](CC(C)C)C(=O)N[C@@H](CC(=O)O)C(=O)N[C@@H](C(=O)N1CCC[C@H]1C(=O)N[C@H](C(=O)N[C@@H](CCCCN)C(=O)N[C@@H](CC(C)C)C(=O)N[C@@H](CCCCNC(=O)CC[C@H](NC(=O)CCCCCCCCCCCCCCC(=O)O)C(=O)O)C(=O)N[C@@H](CCC(N)=O)C(=O)N[C@H](C(=O)N[C@@H](CC(C)C)C(=O)N[C@@H](CC(C)C)C(=O)N[C@@H](CCCCN)C(=O)N[C@@H](CCC(N)=O)C(=O)N[C@@H](CCC(=O)O)C(=O)N[C@@H](CCCNC(=N)N)C(=O)N[C@@H](CCC(N)=O)C(=O)N[C@@H](CCCCN)C(=O)N[C@@H](CCCCN)C(=O)NC(C)(C)C(=O)N[C@@H](CCCNC(=N)N)C(=O)N[C@@H](CCC(N)=O)C(=O)N[C@@H](CCCCN)C(=O)N[C@@H](C)C(=O)N[C@@H](CCC(=O)O)C(=O)N[C@@H](CCCCN)C(=O)N[C@@H](CC(N)=O)C(=O)N[C@@H](CCCCN)C(=O)N[C@@H](CCC(N)=O)C(=O)N[C@H](C(=O)N[C@@H](CC(C)C)C(=O)N[C@@H](C)C(=O)N[C@@H](CCC(N)=O)C(=O)N[C@H](C(N)=O)C(C)C)[C@@H](C)CC)[C@@H](C)CC)[C@@H](C)CC)C(C)C)C(C)C [compound 189] (H-IVLSLD[dV]PIKLK([γGlu-C16 diacid])QILLKQERQKK[Aib]RQKAEKNKQILAQV-NH2; N-terminus assumed) |
| > 100 | 21.6 | – | – | 7300 (≈ 1540 µM) | 700 (≈ 147 µM) | – | 85 | 101 | – | – | 0.11 | CC[C@H](C)[C@H](N)C(=O)N[C@H](C(=O)N[C@@H](CC(C)C)C(=O)N[C@@H](CO)C(=O)N[C@@H](CC(C)C)C(=O)N[C@@H](CC(=O)O)C(=O)N[C@@H](C(=O)N1CCC[C@H]1C(=O)N[C@H](C(=O)NCC(=O)N[C@@H](CC(C)C)C(=O)N[C@@H](CCCCNC(=O)CC[C@H](NC(=O)CCCCCCCCCCCCCCC(=O)O)C(=O)O)C(=O)N[C@@H](CCC(N)=O)C(=O)N[C@H](C(=O)N[C@@H](CC(C)C)C(=O)N[C@@H](CC(C)C)C(=O)N[C@@H](CCCCN)C(=O)N[C@@H](CCC(N)=O)C(=O)N[C@@H](CCC(=O)O)C(=O)N[C@@H](CCCNC(=N)N)C(=O)N[C@@H](CCC(N)=O)C(=O)N[C@@H](CCCCN)C(=O)N[C@@H](CCCCN)C(=O)NC(C)(C)C(=O)N[C@@H](CCCNC(=N)N)C(=O)N[C@@H](CCC(=O)O)C(=O)N[C@@H](CCC(N)=O)C(=O)N[C@@H](C)C(=O)N[C@@H](CCC(=O)O)C(=O)N[C@H](C(=O)N[C@@H](CC(N)=O)C(=O)N[C@@H](CCCCN)C(=O)N[C@@H](CCC(N)=O)C(=O)N[C@H](C(=O)N[C@@H](CC(C)C)C(=O)N[C@@H](C)C(=O)N[C@@H](CCC(N)=O)C(=O)N[C@H](C(N)=O)C(C)C)[C@@H](C)CC)[C@@H](C)O)[C@@H](C)CC)[C@@H](C)CC)C(C)C)C(C)C [compound 194] (H-IVLSLD[dV]PIGLK([γGlu-C16 diacid])QILLKQERQKK[Aib]REQAETNKQILAQV-NH2; N-terminus assumed) |
